Source: ChEMBL document CHEMBL1806359, “Synthesis and evaluation of bidentate ligands designed to interact with PDZ domains” (Bioorg Med Chem, 2011)

Molecular target: Disks large homolog 4 (Mus musculus) (UniProt Q62108)
Assay: Binding affinity to Swiss mouse brain PSD95 domain assessed as inhibition of PSD95-5-HT2A receptor C-terminal decapeptide interaction after overnight incubation by chemiluminescence assay
Assay type: tissue-based

Disks large homolog 4 (Mus musculus), sequence (Q62108 whole entry, looked up, the tested form may be a part): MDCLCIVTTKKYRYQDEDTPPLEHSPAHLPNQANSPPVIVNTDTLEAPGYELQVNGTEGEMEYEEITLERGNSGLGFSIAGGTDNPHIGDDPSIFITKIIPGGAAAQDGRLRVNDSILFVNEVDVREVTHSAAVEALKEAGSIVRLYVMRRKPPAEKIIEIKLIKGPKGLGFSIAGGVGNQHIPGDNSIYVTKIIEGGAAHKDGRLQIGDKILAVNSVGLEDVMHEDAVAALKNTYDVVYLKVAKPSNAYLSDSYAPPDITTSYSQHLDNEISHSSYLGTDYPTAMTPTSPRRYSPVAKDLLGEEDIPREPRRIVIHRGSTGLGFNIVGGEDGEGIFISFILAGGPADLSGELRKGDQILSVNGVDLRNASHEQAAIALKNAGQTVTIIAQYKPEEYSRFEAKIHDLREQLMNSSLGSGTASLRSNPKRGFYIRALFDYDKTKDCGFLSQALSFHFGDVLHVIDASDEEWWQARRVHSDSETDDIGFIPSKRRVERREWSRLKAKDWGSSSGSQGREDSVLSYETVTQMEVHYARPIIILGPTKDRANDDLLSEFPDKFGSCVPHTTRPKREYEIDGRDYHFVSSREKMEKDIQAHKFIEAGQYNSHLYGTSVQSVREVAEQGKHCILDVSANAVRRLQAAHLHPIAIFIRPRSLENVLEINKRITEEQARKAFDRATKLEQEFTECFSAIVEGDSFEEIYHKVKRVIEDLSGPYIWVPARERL

Row | SMILES | inhibition
1 | Cc1c(C(=O)NCCN)[nH]c2ccc(C(=O)O)cc12 | Dose-dependent effect
2 | Cc1c(C(=O)NCCNC(=O)[C@@H](N)Cc2c[nH]c3ccccc23)[nH]c2ccc(C(=O)O)cc12 | Dose-dependent effect
3 | Cc1c(C(=O)O)[nH]c2ccc(C(=O)O)cc12 | Dose-dependent effect
